Data published in paper PMC3793977, “High-Throughput Screening (HTS) and Hit Validation to Identify Small Molecule Inhibitors with Activity against NS3/4A proteases from Multiple Hepatitis C Virus Genotypes” (PLoS ONE, 2013).

Key:
replicon cells 2a = tested on: replicon cells 2a; set-up: method as in PMID 19457562, PMID 14578911; conditions: cited from earlier work
[1] = molecular target: T1, NS3/4A protease genotype 2a (Hepatitis C virus genotype 2a, UniProt Q99IB8); experiment: Inhibition assay with NS3/4A from genotype 2a; assay type: biochemical; conditions: IC50 Purified NS3/4A Sub-genotype 2a, genotype 2a
T1 construct: against the NS3/4A protease domains from three additional HCV genotypes (1a, 2a, and 4d); purchased Anaspec
Experimental: The inhibitory activity of the final hit compounds from HTS were tested against three other HCV genotypes (1a, 2a, and 4d), along with a control (genotype 1b) and five NS3 drug-resistant mutants. Eight full-length NS3 mutants (V36M, R155K, A156T, A156S, 156V, V36A, T54A, and R155T) were generated by mutagenesis and purified, and the three HCV NS3/4A protease genotypes were purchased from Anaspec. Unfortunately the enzyme activities of the three mutants V36A, T54A, and R155T were much less than that of the rest of the mutants and were insufficient for testing, therefore mutant studies were done with the five active mutants. Continuous kinetic assays were performed against all hit compounds in the same way as the wild-type NS3/4A. As a control, full-length NS3/4A (genotype 1b) was tested under the same conditions for direct comparison for each plate.

[2] = molecular target: T2, full-length NS3/4A protease (genotype 1b) (Hepatitis C virus genotype 1b, UniProt Q9WMX2); experiment: biochemical; conditions: IC50 Full-length NS3/4A, purified full-length NS3/4A, genotype 1b wild-type
T2 construct: wild-type HCV NS3 (HCV polyprotein residues 1027–1657); His-tag (N); made in house
Experimental: All assays were done in duplicate in black 384-well plates (Matrix Technologies). […] 200 nL of 10 mM compound (50 µM final concentrations) were then added and incubated for 5 minutes. Enzyme reactions were initiated with 10 µL of substrate Ac-DE-Dap(QXL520)-EE-Abu-ψ-[COO]AS-C(5-FAMsp)-NH2 (Anaspec) (1 µM final concentration), incubated for 6 minutes, and quenched by 10 µL of 10% SDS as a stop solution. Fluorescence intensity was monitored with a POLARstar OPTIMA microplate reader (BMG LABTECH). Each plate contained a total of 32 positive and 32 negative controls.
(§1) A series of compound concentrations (0 to 200 µM final concentration at 2-fold serial dilution) in 100% DMSO were prepared in a 384-well plate. 20 µL of enzyme solution was distributed to wells, and 0.5 µL of varying concentration of compounds were added and incubated for 5 minutes. The enzyme reaction was initiated by adding 5 µL of the substrate, and its activity was continuously monitored for 6 minutes. The IC50 values were calculated by fitting with the Hill equation (1), with OriginPro 8.5 (OriginLab, Inc.) where y is percent inhibition, x is inhibitor concentration, n is the slope of the concentration–response curve (Hill slope), and Vmax is maximal inhibition from two to four independent assays. [drawing 1] (1)

[3] = molecular target: T3, HCV replicon cell lysate sg 2a (NS3) (Hepatitis C virus genotype 2a, UniProt Q99IB8); experiment: Whole cell lysate inhibition assay, HCV subgenomic replicon 2a; assay type: biochemical
T3 construct: expressed in transfected cells; host or cells: Huh7 cells stably replicating the JFH-1 subgenomic replicon; whole cell lysate
Experimental: (§2) Huh7-1 cells (also known as Huh7/scr cells) were obtained from F.V. Chisari (The Scripps Research Institute, La Jolla, CA). Clone B HCV sub-genotype 1b Huh7 cells were obtained from the NIH AIDS Research and Reference Reagent Program and have been previously described. Huh7 cells stably replicating the sub-genotype 2a HCV JFH-1 replicon were generated as previously described. All cells were cultured in complete Dulbecco’s modified Eagle’s medium (DMEM) supplemented with 10% fetal bovine serum, 100 units/mL penicillin, […] streptomycin, and 2 mM L-glutamine. HCV replicon cells were maintained in 500 µg/mL Geneticin (Invitrogen). For NS3 inhibition analysis, lysates from parental Huh7 cells and HCV replicon cells were harvested on ice in pre-chilled FRET cell lysis buffer (50 mM Tris-HCl, pH 7.5; 150 mM NaCl, 2 mM EDTA, 1.25% Triton X-100). Lysates were brought to room temperature and mixed 1∶1 with 2× FRET assay buffer (100 mM Tris-HCl, pH 7.5, 300 mM NaCl, 4 mM EDTA, 2.5% Triton X-100, 10 mM GSH, and 4 µM substrate). Fluorescence intensity was continuously monitored for 1 hour, and IC50 values were determined in the same way as biochemical assays.

full-length NS3/4A = molecular target: T4, full-length NS3/4A (Hepatitis C virus genotype 1b, UniProt Q9WMX2); experiment: Type (mechanism) of enzyme inhibition, kinetic analysis; assay type: biochemical; conditions: with respect to the substrate, best fit model
T4 construct: wild-type HCV NS3 (HCV polyprotein residues 1027–1657); His-tag (N); made in house
Experimental: Full-length NS3/4A activity was monitored in the same way as the primary screening with varying concentration of both inhibitor compounds and substrate (0–8 µM). The concentration of compounds varied from 0 to 20 µM at 1.5-fold dilution factor.

replicon cells 1b = tested on: replicon cells 1b; set-up: method as in PMID 19457562, PMID 14578911; conditions: cited from earlier work
NS3 protease domain = molecular target: T5, NS3 protease domain (Hepatitis C virus genotype 1b, UniProt Q9WMX2); experiment: Fluorescence enzymatic assay with NS3 protease domain alone; assay type: biochemical
T5 construct: the full-length NS3/4A and the NS3/4A protease domain alone
Experimental: as §1

[4] = molecular target: T6, HCV replicon cell lysate sg 1b (NS3) (Hepatitis C virus genotype 1b, UniProt Q9WMX2); experiment: Whole cell lysate inhibition assay, HCV subgenomic replicon 1b; assay type: biochemical
T6 construct: host or cells: Huh7 Clone B cells stably replicating an HCV 1b subgenomic replicon; whole cell lysate
Experimental: as §2

For `COc1ccc2c(O[C@@H]3C[C@H]4C(=O)N[C@]5(C(=O)O)C[C@H]5/C=C\CCCCC[C@H](NC(=O)OC5CCCC5)C(=O)N4C3)cc(-c3csc(NC(C)C)n3)nc2c1` [BILN-2061, reference compound], the EC50 (replicon cells 2a) is listed as 67 nM, the IC50 [1] is listed as 12 ± 1 nM and the IC50 [2] is listed as 4.6 ± 0.5 nM. For the same compound, the “fold increase of IC50, whole cell lysate 2a vs biochemical assay” value ([3]; sg2a lysate compared to purified enzyme) was about 19 fold, the IC50 ([3]; whole cell lysate, subgenomic replicon 2a) was 230 ± 30 nM and the mechanism of inhibition (full-length NS3/4A) was “competitive inhibition”. The EC50 (replicon cells 1b) was 3 nM, the IC50 (NS3 protease domain) was 1.7 ± 0.1 nM and the “fold increase of IC50, whole cell lysate 1b vs biochemical assay” value ([4]; sg1b lysate compared to purified enzyme) was about 8 fold. It also gave an IC50 ([4]; whole cell lysate, subgenomic replicon 1b) of 37 ± 10 nM.
